14 molecules from US10544147B2, “Purine inhibitors of human phosphatidylinositol 3-kinase delta” (MERCK SHARP & DOHME CORP., priority 2016, dated 2020) can be followed below.

A value given as a limit tells only on which side of the number the result lay.

For one test, the target named is PI3Kdelta (Homo sapiens (Human), UniProt O00329). The experiment in a line: HTRF PI3K biochemical assay, delta isoform. The note with it: 0.3 nM enzyme, 100 uM ATP, 50 uM PIP2; form screened (neutral or TFA salt). (TR-FRET usually uses a lanthanide donor and a delayed reading to cut background.)
PI3Kdelta, sequence (O00329 whole entry, canonical isoform): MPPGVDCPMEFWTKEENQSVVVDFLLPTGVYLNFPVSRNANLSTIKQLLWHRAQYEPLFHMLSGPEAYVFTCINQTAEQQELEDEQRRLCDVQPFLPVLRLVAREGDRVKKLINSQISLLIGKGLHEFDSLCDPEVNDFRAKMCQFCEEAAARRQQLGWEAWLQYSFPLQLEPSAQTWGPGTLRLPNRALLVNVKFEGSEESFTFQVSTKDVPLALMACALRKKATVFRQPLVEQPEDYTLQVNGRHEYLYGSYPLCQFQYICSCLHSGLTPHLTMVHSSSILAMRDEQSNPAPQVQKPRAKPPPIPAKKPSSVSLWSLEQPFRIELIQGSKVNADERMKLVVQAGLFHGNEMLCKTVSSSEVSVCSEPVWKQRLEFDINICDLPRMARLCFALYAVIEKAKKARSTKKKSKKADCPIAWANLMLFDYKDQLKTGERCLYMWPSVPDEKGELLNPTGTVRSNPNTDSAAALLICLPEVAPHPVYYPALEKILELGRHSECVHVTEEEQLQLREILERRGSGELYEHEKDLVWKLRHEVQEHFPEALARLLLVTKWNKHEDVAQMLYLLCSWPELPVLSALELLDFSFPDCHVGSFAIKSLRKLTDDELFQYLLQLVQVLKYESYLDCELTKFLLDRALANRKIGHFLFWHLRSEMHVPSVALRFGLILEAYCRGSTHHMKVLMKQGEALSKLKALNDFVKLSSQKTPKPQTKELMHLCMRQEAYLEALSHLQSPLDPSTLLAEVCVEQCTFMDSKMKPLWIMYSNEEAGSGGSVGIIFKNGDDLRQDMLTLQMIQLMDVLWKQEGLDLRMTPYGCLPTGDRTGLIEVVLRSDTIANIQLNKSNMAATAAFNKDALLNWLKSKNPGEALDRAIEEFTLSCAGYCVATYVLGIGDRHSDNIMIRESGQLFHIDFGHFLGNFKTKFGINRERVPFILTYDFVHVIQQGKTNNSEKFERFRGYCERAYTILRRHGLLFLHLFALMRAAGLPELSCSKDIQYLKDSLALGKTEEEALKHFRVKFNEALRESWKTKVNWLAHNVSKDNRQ
PI3Kdelta, sequence (P27986 whole entry partner, canonical isoform): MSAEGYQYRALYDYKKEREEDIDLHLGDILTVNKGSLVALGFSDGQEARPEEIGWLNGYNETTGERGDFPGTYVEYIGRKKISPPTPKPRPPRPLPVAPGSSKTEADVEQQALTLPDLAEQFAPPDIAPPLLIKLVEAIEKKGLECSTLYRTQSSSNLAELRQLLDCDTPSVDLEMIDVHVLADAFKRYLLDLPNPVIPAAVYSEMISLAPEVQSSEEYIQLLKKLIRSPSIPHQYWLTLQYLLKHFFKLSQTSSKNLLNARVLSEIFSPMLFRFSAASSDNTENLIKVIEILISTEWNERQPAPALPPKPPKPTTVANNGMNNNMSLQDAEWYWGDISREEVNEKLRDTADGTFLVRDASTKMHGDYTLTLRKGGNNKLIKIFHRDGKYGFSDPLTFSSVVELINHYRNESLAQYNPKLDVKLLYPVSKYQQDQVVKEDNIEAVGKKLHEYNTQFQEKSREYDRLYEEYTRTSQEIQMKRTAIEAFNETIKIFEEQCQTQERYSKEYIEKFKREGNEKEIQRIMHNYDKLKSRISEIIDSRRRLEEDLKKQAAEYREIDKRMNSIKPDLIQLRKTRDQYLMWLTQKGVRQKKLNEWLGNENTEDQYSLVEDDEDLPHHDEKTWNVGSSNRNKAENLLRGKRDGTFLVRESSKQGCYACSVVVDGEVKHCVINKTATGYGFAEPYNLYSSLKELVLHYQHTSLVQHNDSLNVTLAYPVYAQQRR
The next test concerns the target PI3Kalpha (Homo sapiens (Human), UniProt P42336). The test is described as follows: HTRF PI3K biochemical assay, alpha isoform (selectivity versus delta). The note with it: ratio PI3K-alpha IC50 value/PI3K-delta IC50 value.

PI3Kalpha, sequence (P42336 whole entry, canonical isoform): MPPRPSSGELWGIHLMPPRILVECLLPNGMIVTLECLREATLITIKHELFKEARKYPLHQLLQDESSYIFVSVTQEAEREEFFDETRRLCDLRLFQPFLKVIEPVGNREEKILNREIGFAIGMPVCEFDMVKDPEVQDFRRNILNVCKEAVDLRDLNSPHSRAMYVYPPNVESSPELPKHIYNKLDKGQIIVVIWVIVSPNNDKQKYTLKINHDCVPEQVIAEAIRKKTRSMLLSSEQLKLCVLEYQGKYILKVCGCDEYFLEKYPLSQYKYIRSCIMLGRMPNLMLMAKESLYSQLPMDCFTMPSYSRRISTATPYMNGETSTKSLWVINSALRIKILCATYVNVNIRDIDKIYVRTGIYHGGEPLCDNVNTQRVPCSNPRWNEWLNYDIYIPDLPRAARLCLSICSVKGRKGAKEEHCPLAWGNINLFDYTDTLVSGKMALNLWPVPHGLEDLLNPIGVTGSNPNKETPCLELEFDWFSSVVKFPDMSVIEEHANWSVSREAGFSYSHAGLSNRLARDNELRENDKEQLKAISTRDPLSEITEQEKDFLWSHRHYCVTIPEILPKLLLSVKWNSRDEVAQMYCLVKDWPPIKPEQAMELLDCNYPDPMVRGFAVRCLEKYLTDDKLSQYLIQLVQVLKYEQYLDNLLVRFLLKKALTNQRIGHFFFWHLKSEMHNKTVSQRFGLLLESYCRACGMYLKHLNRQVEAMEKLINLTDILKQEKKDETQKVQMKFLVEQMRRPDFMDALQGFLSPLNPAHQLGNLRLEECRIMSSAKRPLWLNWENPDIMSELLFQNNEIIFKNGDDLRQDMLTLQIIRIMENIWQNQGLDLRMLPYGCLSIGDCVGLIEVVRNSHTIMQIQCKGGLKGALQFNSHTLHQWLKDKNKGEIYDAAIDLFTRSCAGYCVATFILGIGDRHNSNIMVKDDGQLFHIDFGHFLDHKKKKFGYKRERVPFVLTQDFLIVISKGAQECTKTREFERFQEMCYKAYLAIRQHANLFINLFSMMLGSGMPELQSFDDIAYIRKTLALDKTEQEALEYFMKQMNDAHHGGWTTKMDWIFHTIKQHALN
PI3Kalpha, sequence (P27986 whole entry partner, canonical isoform): as the sequence (P27986 whole entry partner, canonical isoform) above

Consider `CCn1c(-c2cnc(C)nc2)nc2c(-c3ccc4c(c3)C(C)(NC[C@H]3CCCO3)C(=O)N4)ncnc21` (mixture of isomers) [Compound 2-22, 5-[9-ethyl-8-(2-methylpyrimidin-5-yl)-9H-purin-6-yl]-3(R and S)-methyl-3-{[(2R)-tetrahydrofuran-2-ylmethyl]amino}-1,3-dihydro-2H-indol-2-one], for which the IC50 (in general, the midpoint of a concentration-inhibition curve) on PI3Kdelta worked out at 26 nM. In addition, the “Relative Selectivity versus PI3Kalpha” value on PI3Kalpha is reported as above 10.

On to `CCn1c(-c2cnc(C)nc2)nc2c(-c3ccc4c(c3)C(C)(N3CC(C)(C#N)C3)C(=O)N4)ncnc21` (single isomer, unassigned) [Compound 2-5, (R or S)-1-{5-[9-ethyl-8-(2-methylpyrimidin-5-yl)-9H-purin-6-yl]-3-methyl-2-oxo-2,3-dihydro-1H-indol-3-yl}-3-methylazetidine-3-carbonitrile], for which, on PI3Kdelta, the concentration for half-maximal inhibition (IC50) turned out to be 73 nM. On PI3Kalpha, the “Relative Selectivity versus PI3Kalpha” value is on record as above 10.

Take `CCn1c(-c2cnc(C)nc2)nc2c(-c3cnc4c(c3)C(C)(N3CC(C)(C#N)C3)C(=O)N4)ncnc21` (single isomer, unassigned) [Compound 2-54, (S or R)-1-(5-(9-ethyl-8-(2-methylpyrimidin-5-yl)-9H-purin-6-yl)-3-methyl-2-oxo-2,3-dihydro-1H-pyrrolo[2,3-b]pyridin-3-yl)-3-methylazetidine-3-carbonitrile]: at PI3Kdelta, the IC50 was 168 nM. Besides, the “Relative Selectivity versus PI3Kalpha” value at PI3Kalpha was above 10.

`CCn1c(-c2cnc(C)nc2)nc2c(-c3ccc4c(c3)C(C)(N3CCOCC35CCC5)C(=O)N4)ncnc21` (racemic) [Compound 2-23, (R and S)-5-[9-ethyl-8-(2-methylpyrimidin-5-yl)-9H-purin-6-yl]-3-methyl-3-(8-oxa-5-azaspiro[3.5]non-5-yl)-1,3-dihydro-2H-indol-2-one]: the IC50 on PI3Kdelta was 7 nM. The “Relative Selectivity versus PI3Kalpha” value on PI3Kalpha was above 10.

On to `CCn1c(-c2cnc(C)nc2)nc2c(-c3ccc4c(c3)C(C)(N3CC(C)(O)C3)C(=O)N4)ncnc21` (single isomer, unassigned) [Compound 2-81, (R or S)-5-(9-ethyl-8-(2-methylpyrimidin-5-yl)-9H-purin-6-yl)-3-(3-hydroxy-3-methylazetidin-1-yl)-3-methylindolin-2-one], for which, at PI3Kdelta, the IC50 worked out at 26 nM. Further, the “Relative Selectivity versus PI3Kalpha” value at PI3Kalpha is above 10.

Consider `CCn1c(-c2cnc(C)nc2)nc2c(-c3ccc4c(c3)C(C)(OCC(C)(C)F)C(=O)N4)ncnc21` (single isomer, unassigned) [Compound 2-55, (R or S)-5-(9-ethyl-8-(2-methylpyrimidin-5-yl)-9H-purin-6-yl)-3-(2-fluoro-2-methylpropoxy)-3-methylindolin-2-one], for which the IC50 at PI3Kdelta is 200 nM. Further, at PI3Kalpha, the “Relative Selectivity versus PI3Kalpha” value was above 10.

For `CCn1c(-c2cnc(C)nc2)nc2c(-c3cnc4c(c3)C(C)(CC3CC3)C(=O)N4)ncnc21` (single isomer, unassigned) [Compound 1-15, (R or S)-3-(cyclopropylmethyl)-5-(9-ethyl-8-(2-methylpyrimidin-5-yl)-9H-purin-6-yl)-3-methyl-1,3-dihydro-2H-pyrrolo[2,3-b]pyridin-2-one], the IC50 on PI3Kdelta was determined as 224 nM. Besides, on PI3Kalpha, the “Relative Selectivity versus PI3Kalpha” value is recorded as above 10.

As to `CCn1c(-c2cnc(C)nc2)nc2c(-c3ccc4c(c3)C3(CCN(C(=O)C5CC5)C3)C(=O)N4)ncnc21` (single isomer, unassigned) [Compound 3-6, (R or S)-1′-(cyclopropanecarbonyl)-5-(9-ethyl-8-(2-methylpyrimidin-5-yl)-9H-purin-6-yl)spiro[indoline-3,3′-pyrrolidin]-2-one], the IC50 at PI3Kdelta is 26 nM. In addition, the “Relative Selectivity versus PI3Kalpha” value at PI3Kalpha is above 10.

Consider `CCn1c(-c2cnc(C)nc2)nc2c(-c3ccc4c(c3)C(C)(CC(C)C)C(=O)N4)ncnc21` (single isomer, unassigned) [Compound 1-2, 5-(9-Ethyl-8-(2-methylpyrimidin-5-yl)-9H-purin-6-yl)-3-isobutyl-3-methylindolin-2-one], for which the IC50 at PI3Kdelta stood at 121 nM. At PI3Kalpha, the “Relative Selectivity versus PI3Kalpha” value was above 10.

As for `CCn1ncc(-c2nc3c(-c4ccc5c(c4)C(C)(CC4CC4)C(=O)N5)ncnc3n2CC)c1C` (single isomer, unassigned) [Compound 1-25, 3-(Cyclopropylmethyl)-5-(9-ethyl-8-(1-ethyl-5-methyl-1H-pyrazol-4-yl)-9H-purin-6-yl)-3-methylindolin-2-one], at PI3Kdelta, the IC50 was determined as 4 nM. Also, the “Relative Selectivity versus PI3Kalpha” value on PI3Kalpha was above 10.

Consider `CCn1c(-c2cnc(C)nc2)nc2c(-c3ccc4oc(=O)n(C(C)c5ccccc5)c4c3)ncnc21` (single isomer, unassigned) [Compound 5-1, (R or S)-5-[9-ethyl-8-(2-methylpyrimidin-5-yl)-9H-purin-6-yl]-3-(1-phenylethyl)-1,3-benzoxazol-2(3H)-one], for which, on PI3Kdelta, the IC50 was determined as 14 nM. The “Relative Selectivity versus PI3Kalpha” value at PI3Kalpha is recorded as above 10.

Turning to `Cc1ncc(-c2nc3c(-c4ccc5c(c4)C(C)(NCC(C)(C)F)C(=O)N5)ncnc3n2C)cn1` (single isomer, unassigned) [Compound 2-67, (R or S)-3-((2-fluoro-2-methylpropyl)amino)-3-methyl-5-(9-methyl-8-(2-methylpyrimidin-5-yl)-9H-purin-6-yl)indolin-2-one], at PI3Kdelta, the IC50 turned out to be 344 nM. Moreover, on PI3Kalpha, the “Relative Selectivity versus PI3Kalpha” value is listed as above 10.

With `CCn1c(-c2cnc(C)nc2)nc2c(-c3ccc4[nH]c(=O)n(C(C)C5CC5)c4c3)ncnc21` (single isomer, unassigned) [Compound 5-8, (R or S)-1-(1-cyclopropylethyl)-6-[9-ethyl-8-(2-methylpyrimidin-5-yl)-9H-purin-6-yl]-1,3-dihydro-2H-benzimidazol-2-one], the IC50 at PI3Kdelta was 24 nM. Moreover, on PI3Kalpha, the “Relative Selectivity versus PI3Kalpha” value is above 10.

`CCn1c(-c2cnc(C)nc2)nc2c(-c3ccc4c(c3)C3(CCCN3S(C)(=O)=O)C(=O)N4)ncnc21` (single isomer, unassigned) [Compound 3-20, (R or S)-5-(9-ethyl-8-(2-methylpyrimidin-5-yl)-9H-purin-6-yl)-1′-(methylsulfonyl)spiro[indoline-3,2′-pyrrolidin]-2-one]: the concentration for half-maximal inhibition (IC50) on PI3Kdelta was 55 nM. The “Relative Selectivity versus PI3Kalpha” value at PI3Kalpha was above 10.
